Patent US20130071854A1, “METHODS FOR THE IDENTIFICATION AND CHARACTERIZATION OF HDAC INTERACTING COMPOUNDS” (priority 2009, published 2013)
Read-outs that look alike come from different tables or passages of the source.

Legend:
[1] = test system: CoREST complex; assay: Chemoproteomic binding profiling, K562 cell extract, SAHA/ITF2357 probe matrix (Kd app); set-up: species or system human
[2] = biological target: T1, HDAC10 (Homo sapiens, UniProt Q969S8); assay: as above; conditions: for binding profile for HDAC10 (in words): K562 cell extract
T1 construct: used to probe endogenous HDACs in K562 whole cell extracts; endogenous in cells
T1 sequence (Q969S8 1-669): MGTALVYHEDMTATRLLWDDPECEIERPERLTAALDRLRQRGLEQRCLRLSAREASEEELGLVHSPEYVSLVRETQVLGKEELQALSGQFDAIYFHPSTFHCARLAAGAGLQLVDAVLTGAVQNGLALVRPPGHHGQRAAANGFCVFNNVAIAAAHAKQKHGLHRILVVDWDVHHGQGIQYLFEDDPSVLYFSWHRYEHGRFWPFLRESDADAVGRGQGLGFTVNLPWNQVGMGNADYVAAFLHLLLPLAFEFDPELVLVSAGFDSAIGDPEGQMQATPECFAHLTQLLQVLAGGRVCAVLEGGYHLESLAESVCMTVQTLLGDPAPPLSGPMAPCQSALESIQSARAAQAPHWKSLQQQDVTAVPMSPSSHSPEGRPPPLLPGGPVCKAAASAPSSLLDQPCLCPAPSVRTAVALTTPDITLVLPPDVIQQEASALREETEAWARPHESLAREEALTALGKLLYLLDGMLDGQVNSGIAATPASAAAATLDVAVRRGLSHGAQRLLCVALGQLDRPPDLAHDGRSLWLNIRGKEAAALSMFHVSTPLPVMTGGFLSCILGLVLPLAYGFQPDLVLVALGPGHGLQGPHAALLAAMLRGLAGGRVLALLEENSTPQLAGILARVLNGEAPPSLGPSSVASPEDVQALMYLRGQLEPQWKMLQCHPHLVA

[3] = biological target: T2, non-HDAC targets (e.g. BZW2, ISOC2, aldehyde dehydrogenases) (Homo sapiens, UniProt Q9Y6E2); assay: as above; conditions: protein BZW2; selected HDACi off-targets
T2 construct: endogenous in cells; host or cells: K562 whole cell extract
T2 sequence (Q9Y6E2 1-419): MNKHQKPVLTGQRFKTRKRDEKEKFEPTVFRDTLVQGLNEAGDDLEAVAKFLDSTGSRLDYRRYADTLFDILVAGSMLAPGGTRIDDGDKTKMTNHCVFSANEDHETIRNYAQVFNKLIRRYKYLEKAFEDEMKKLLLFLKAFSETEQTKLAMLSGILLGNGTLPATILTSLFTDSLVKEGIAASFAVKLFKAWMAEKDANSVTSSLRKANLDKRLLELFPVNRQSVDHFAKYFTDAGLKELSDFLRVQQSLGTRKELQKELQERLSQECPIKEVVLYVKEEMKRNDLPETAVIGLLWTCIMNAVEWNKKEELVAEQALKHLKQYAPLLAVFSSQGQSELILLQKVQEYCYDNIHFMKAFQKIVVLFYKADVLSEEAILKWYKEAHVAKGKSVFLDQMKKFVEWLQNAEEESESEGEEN

[4] = biological target: T3, non-HDAC targets (e.g. BZW2, ISOC2, aldehyde dehydrogenases) (Homo sapiens, UniProt O94788); assay: as above; conditions: protein ALDH1A2; selected HDACi off-targets
T3 construct: endogenous in cells; host or cells: K562 whole cell extract
T3 sequence (O94788 1-518): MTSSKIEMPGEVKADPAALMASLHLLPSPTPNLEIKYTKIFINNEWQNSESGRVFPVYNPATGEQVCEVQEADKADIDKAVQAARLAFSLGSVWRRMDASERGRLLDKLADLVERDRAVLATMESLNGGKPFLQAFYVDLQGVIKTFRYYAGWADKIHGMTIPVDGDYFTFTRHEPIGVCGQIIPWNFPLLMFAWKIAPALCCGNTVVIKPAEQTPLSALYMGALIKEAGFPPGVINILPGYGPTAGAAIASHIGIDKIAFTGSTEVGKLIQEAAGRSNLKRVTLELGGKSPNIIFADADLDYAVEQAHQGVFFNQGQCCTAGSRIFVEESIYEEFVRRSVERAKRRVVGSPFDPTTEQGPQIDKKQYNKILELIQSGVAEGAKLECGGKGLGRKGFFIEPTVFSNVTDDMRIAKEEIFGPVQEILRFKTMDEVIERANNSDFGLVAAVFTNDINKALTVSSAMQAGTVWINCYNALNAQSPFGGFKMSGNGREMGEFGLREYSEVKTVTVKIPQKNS

[5] = biological target: T4, non-HDAC targets (e.g. BZW2, ISOC2, aldehyde dehydrogenases) (Homo sapiens, UniProt Q08209); assay: as above; conditions: protein PPP3CA; selected HDACi off-targets
T4 construct: Kd^app PPP3CA; other: protein PPP3CA; selected HDACi off-targets

[6] = biological target: T5, non-HDAC targets (e.g. BZW2, ISOC2, aldehyde dehydrogenases) (Homo sapiens, UniProt P16152); assay: as above; conditions: protein CBR1; selected HDACi off-targets
T5 construct: Kd^app CBR1; other: protein CBR1; selected HDACi off-targets
T5 sequence (P16152 1-277): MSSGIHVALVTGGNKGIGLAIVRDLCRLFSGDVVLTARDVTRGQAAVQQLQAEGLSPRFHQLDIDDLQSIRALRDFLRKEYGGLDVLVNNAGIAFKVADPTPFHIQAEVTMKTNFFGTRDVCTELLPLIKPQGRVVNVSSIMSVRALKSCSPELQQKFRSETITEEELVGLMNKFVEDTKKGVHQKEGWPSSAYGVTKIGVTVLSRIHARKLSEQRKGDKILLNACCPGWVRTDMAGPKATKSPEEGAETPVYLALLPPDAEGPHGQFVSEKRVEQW

[7] = biological target: T6, non-HDAC targets (e.g. BZW2, ISOC2, aldehyde dehydrogenases) (Homo sapiens, UniProt Q96AB3); assay: as above; conditions: protein ISOC2; selected HDACi off-targets
T6 construct: endogenous in cells; host or cells: K562 whole cell extract
T6 sequence (Q96AB3 1-205): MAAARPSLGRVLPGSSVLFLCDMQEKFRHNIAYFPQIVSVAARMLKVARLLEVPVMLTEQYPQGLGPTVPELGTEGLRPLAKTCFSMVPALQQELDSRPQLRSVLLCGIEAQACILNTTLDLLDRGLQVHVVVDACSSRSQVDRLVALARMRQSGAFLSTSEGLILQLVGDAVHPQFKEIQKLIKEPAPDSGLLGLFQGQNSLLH

[8] = test system: RERE; assay: Chemoproteomic binding profiling, K562 cell extract, SAHA/ITF2357 probe matrix (Kd app), ELSA (ELM-SANT) domain protein; set-up: species or system human; conditions: protein RERE; ELSA (ELM-SANT) domain proteins
[9] = protein GSE1, CoREST complex, read-out: Kd^app GSE1
[10] = protein HMG20A, CoREST complex, read-out: Kd^app HMG20A
[11] = protein HMG20B, CoREST complex, read-out: Kd^app HMG20B
[12] = protein RCOR1, CoREST complex, read-out: Kd^app RCOR1
[13] = protein RCOR2, CoREST complex, read-out: Kd^app RCOR2
[14] = protein RCOR3, CoREST complex, read-out: Kd^app RCOR3
[15] = protein ZMYM2, CoREST complex, read-out: Kd^app ZMYM2
[16] = protein ZMYM3, CoREST complex, read-out: Kd^app ZMYM3
[17] = protein HDAC10, class II HDAC, read-out: Kd^app HDAC10

Which results are given for `CCCCOc1ccc(CC(=O)NO)cc1` [bufexamac]?
Kd [1, 9]: > 59.7 µM; Kd [1, 10]: > 59.7 µM; Kd [1, 11]: > 59.7 µM; Kd [1, 12]: > 59.7 µM; Kd [1, 13]: > 59.7 µM; Kd [1, 14]: > 59.7 µM; Kd [1, 15]: 128 µM; Kd [1, 16]: 172 µM; binding profile for HDAC10 (in words) [2]: selectivity for HDAC6 and HDAC10; Kd [2, 17]: 10 µM; Kd [3]: 3 µM; Kd [4]: 3 µM; Kd [5]: 304 µM; Kd [6]: 149 µM; Kd [7]: 3 µM; Kd [8]: 33 µM

How did the Kd [5] turn out when `O=C(CCCCCCC(=O)Nc1ccccc1)NO` [SAHA, suberoylanilide hydroxamic acid] was run?
The Kd was greater than 10 µM.

And the Kd [6]?
Its Kd is greater than 10 µM.

Which results are given for `Nc1ccccc1NC(=O)CCCCCCC(=O)Nc1ccccc1` [BML-210]?
Kd [1, 9]: 51 µM; Kd [1, 10]: 40 µM; Kd [1, 11]: 50 µM; Kd [1, 12]: 46 µM; Kd [1, 13]: 85 µM; Kd [1, 14]: 55 µM; Kd [1, 15]: > 85 µM; Kd [1, 16]: > 85 µM; binding profile for HDAC10 (in words) [2]: complete loss of potency for class IIb; Kd [2, 17]: > 85 µM; Kd [3]: > 85 µM; Kd [4]: > 85 µM; Kd [5]: > 85 µM; Kd [6]: > 85 µM; Kd [7]: > 85 µM; Kd [8]: > 85 µM

Which Kd ([1]; read-out: Kd^app GSE1) does the source give for `Nc1ccccc1NC(=O)c1ccc(CNC(=O)OCc2cccnc2)cc1` [MS-275] here?
The Kd was greater than 300 µM.

And the Kd ([1]; read-out: Kd^app HMG20A)?
Its Kd is greater than 300 µM.

And the Kd ([1]; read-out: Kd^app HMG20B)?
Its Kd is greater than 300 µM.

What about the Kd ([1]; read-out: Kd^app PHF21A) of the same compound?
The Kd was greater than 300 µM.

What about the Kd ([1]; read-out: Kd^app RCOR1) of the same compound?
Its Kd is greater than 300 µM.

What about the Kd ([1]; read-out: Kd^app RCOR2) of the same compound?
Its Kd is greater than 300 µM.

And the Kd ([1]; read-out: Kd^app RCOR3)?
Its Kd is greater than 300 µM.

What about the Kd ([1]; read-out: Kd^app ZMYM2) of the same compound?
The Kd was greater than 300 µM.

What about the Kd ([1]; read-out: Kd^app ZMYM3) of the same compound?
Its Kd is greater than 300 µM.

What about the Kd [3] of the same compound?
The Kd was greater than 300 µM.

What about the Kd [4] of the same compound?
Its Kd is greater than 300 µM.

What about the Kd [5] of the same compound?
Its Kd is greater than 300 µM.

What about the Kd [6] of the same compound?
Its Kd is greater than 300 µM.

And the Kd [7]?
The Kd was greater than 300 µM.

What about the Kd [8] of the same compound?
The Kd was greater than 300 µM.

With `CCCC(CCC)C(=O)O` [valproate, valproic acid] as the compound, how does the Kd [1, 9] read?
Its Kd is 224 µM.

What about the Kd [1, 10] of the same compound?
The Kd was 322 µM.

What about the Kd [1, 11] of the same compound?
Its Kd is 380 µM.

What about the Kd ([1]; protein PHF21A, CoREST complex, read-out: Kd^app PHF21A) of the same compound?
The Kd was 438 µM.

And the Kd [1, 12]?
Its Kd is 258 µM.

And the Kd [1, 13]?
Its Kd is 311 µM.

And the Kd [1, 14]?
The Kd was 274 µM.

What about the Kd [1, 15] of the same compound?
The Kd was 700 µM.

What about the Kd [1, 16] of the same compound?
The Kd was 922 µM.

And the Kd [2, 17]?
Its Kd is greater than 10 µM.

What about the Kd [3] of the same compound?
The Kd was greater than 10 µM.

And the Kd [4]?
Its Kd is greater than 10 µM.

What about the Kd [5] of the same compound?
The Kd was greater than 10 µM.

What about the Kd [6] of the same compound?
The Kd was greater than 10 µM.

What about the Kd [7] of the same compound?
The Kd was greater than 10 µM.

And the Kd [8]?
The Kd was 3120 µM.

For `O=C(/C=C/c1cccc(S(=O)(=O)Nc2ccccc2)c1)NO` [belinostat], which Kd [2] is on record?
Its Kd is 4.43 µM.

What about the Kd [3] of the same compound?
Its Kd is 2.25 µM.

And the Kd [4]?
The Kd was greater than 10 µM.

And the Kd [5]?
Its Kd is 3.5 µM.

And the Kd [6]?
Its Kd is 1.98 µM.

What about the Kd [7] of the same compound?
Its Kd is greater than 10 µM.
